In patent publication EP0745595A1, “3-(3-Aryloxyphenyl)-1-(substituted methyl)-s-triazine-2,4,6-oxo or thiotrione herbicidal agents” (American Cyanamid Company, priority 1995, dated 1996):

Key:
Assay type in all cases: in vivo
[1] = tested on: ECHINOCHLOA CRUS-GALLI, (L) BEAU; assay: Preemergence herbicidal evaluation, ECHCG (Barnyardgrass); settings: for ECHCG herbicidal rating: rated four to five weeks after treatment
Summary of the method: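 Barnyardgrass seeds were mixed with potting soil and planted on about one inch of soil in pint cups for preemergence testing. Treated cups were kept on greenhouse benches, watered and maintained by standard greenhouse practice. After four to five weeks, each cup was visually rated on a 0-9 scale against an untreated control.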

[2] = tested on: SETARIA VIRIDIS, (L) BEAU; assay: Preemergence herbicidal evaluation, SETVI (Foxtail, Green); settings: for SETVI herbicidal rating: rated four to five weeks after treatment
Summary of the method: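 Seeds of green foxtail (Setaria viridis) were mixed with potting soil and sown on top of roughly one inch of soil in pint cups for a preemergence herbicide test. Treated cups were kept on greenhouse benches, watered, and cared for conventionally. Four to five weeks after treatment, plants were rated visually on a 0-9 scale against a control.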

[3] = tested on: ABUTILON THEOPHRASTI, MEDIC.; assay: Preemergence herbicidal evaluation, ABUTH (Velvetleaf); settings: for ABUTH herbicidal rating: rated four to five weeks after treatment
Summary of the method: (§1)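 First, seeds in potting soil are sown atop soil in cups. Next, the surface is sprayed with test compound in aqueous acetone at roughly 0.125 to 0.50 kg per hectare. After four to five weeks of greenhouse care, each cup is scored 0-9 against a control.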

IPOMOEA SPP. = assay: Preemergence herbicidal evaluation, IPOSS (Morningglory spp.); settings: for IPOSS herbicidal rating: rated four to five weeks after treatment
Summary of the method: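 Seeds of morningglory (Ipomoea spp.) were mixed with potting soil and sown on roughly one inch of soil in pint cups for a preemergence herbicide test. The cups were put on greenhouse benches, watered, and maintained by standard greenhouse practice. Four to five weeks after treatment each cup was scored visually on a 0-9 scale against a control.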

[4] = tested on: ORYZA SATIVA, L. TEBONNET; assay: Preemergence herbicidal evaluation, ORYSAT (Rice, Tebonnet); settings: for ORYSAT herbicidal rating: rated four to five weeks after treatment
Summary of the method: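 Seeds of rice (Oryza sativa, Tebonnet) were mixed with potting soil and sown on about one inch of soil in pint cups, then treated preemergence. Cups sat on greenhouse benches, watered and tended by standard greenhouse practice. Four to five weeks after treatment, plants were visually scored on a 0-9 scale relative to a control.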

[5] = tested on: AMBROSIA ARTEMISIIFOLIA, L.; assay: Preemergence herbicidal evaluation, AMBEL (Ragweed, Common); settings: for AMBEL herbicidal rating: rated four to five weeks after treatment
Summary of the method: as §1

[6] = tested on: TRITICUM AESTIVUM, CV. APOLLO; assay: Preemergence herbicidal evaluation, TRZAWO (Wheat, Winter, CV. APOLLO); settings: for TRZAWO herbicidal rating: rated four to five weeks after treatment
Summary of the method: as §1

`COC(=O)Cn1c(=O)n(C)c(=O)n(-c2cc(Oc3cc(Cl)cc(Cl)c3)ccc2[N+](=O)[O-])c1=O` [Compound 35, Methyl 3-[5-(3,5-dichlorophenoxy)-2-nitrophenyl]tetrahydro-5-methyl-2,4,6-trioxo-s-triazine-1(2H)-acetate] was tested, and the ECHCG herbicidal rating ([1]; Rate 0.500 kg/ha) was 0.0, the SETVI herbicidal rating ([2]; Rate 0.500 kg/ha) was 0.0 and the ABUTH herbicidal rating ([3]; Rate 0.500 kg/ha) was 0.0. The IPOSS herbicidal rating (IPOMOEA SPP.; Rate 0.500 kg/ha) was 0.0, the ORYSAT herbicidal rating ([4]; Rate 0.500 kg/ha) was 0.0 and the AMBEL herbicidal rating ([5]; Rate 0.500 kg/ha) was 0.0. It also gave a TRZAWO herbicidal rating ([6]; Rate 0.500 kg/ha) of 0.0.
For `COC(=O)Cn1c(=O)n(C)c(=O)n(-c2cc(Oc3ccccn3)ccc2[N+](=O)[O-])c1=O` [Compound 38, Methyl tetrahydro-3-methyl-5-[2-nitro-5-(2-pyridyloxy)phenyl]-2,4,6-trioxo-s-triazine-1(2H)-acetate], the ECHCG herbicidal rating ([1]; Rate 0.500 kg/ha) was 0.0, the SETVI herbicidal rating ([2]; Rate 0.500 kg/ha) was 0.0 and the ABUTH herbicidal rating ([3]; Rate 0.500 kg/ha) was 0.0. It also gave an IPOSS herbicidal rating (IPOMOEA SPP.; Rate 0.500 kg/ha) of 0.0, an ORYSAT herbicidal rating ([4]; Rate 0.500 kg/ha) of 3.0 and an AMBEL herbicidal rating ([5]; Rate 0.500 kg/ha) of 0.0. The TRZAWO herbicidal rating ([6]; Rate 0.500 kg/ha) was 1.0.
In the case of “Methyl 3-{2-[(2-chloro-α,α,α,-trifluoro-p-tolyl)oxy]phenyl}tetrahydro-5-methyl-2,4,6-trioxo-s-triazine-1(2H)-acetate [Compound 28]”, the ECHCG ([1]; Rate 0.125 kg/ha) is reported as 0.0, the ECHCG herbicidal rating ([1]; Rate 0.125 kg/ha) is reported as 0.0 and the ECHCG ([1]; Rate 0.250 kg/ha) is reported as 2.0. It also gave an ECHCG herbicidal rating ([1]; Rate 0.250 kg/ha) of 2.0, an ECHCG ([1]; Rate 0.500 kg/ha) of 3.0 and an ECHCG herbicidal rating ([1]; Rate 0.500 kg/ha) of 3.0. It also gave an ECHCG ([1]; Rate 1.000 kg/ha) of 6.0, an SETVI ([2]; Rate 0.125 kg/ha) of 0.0 and an SETVI herbicidal rating ([2]; Rate 0.125 kg/ha) of 0.0. For the same compound, the SETVI ([2]; Rate 0.250 kg/ha) was 2.0, the SETVI herbicidal rating ([2]; Rate 0.250 kg/ha) was 2.0 and the SETVI ([2]; Rate 0.500 kg/ha) was 3.0. It also gave an SETVI herbicidal rating ([2]; Rate 0.500 kg/ha) of 3.0, an SETVI ([2]; Rate 1.000 kg/ha) of 6.0 and an ABUTH ([3]; Rate 0.125 kg/ha) of 0.0. It also gave an ABUTH herbicidal rating ([3]; Rate 0.125 kg/ha) of 0.0, an ABUTH ([3]; Rate 0.250 kg/ha) of 3.0 and an ABUTH herbicidal rating ([3]; Rate 0.250 kg/ha) of 3.0. The ABUTH ([3]; Rate 0.500 kg/ha) was 4.0, the ABUTH herbicidal rating ([3]; Rate 0.500 kg/ha) was 4.0 and the ABUTH ([3]; Rate 1.000 kg/ha) was 7.0. The IPOSS (IPOMOEA SPP.; Rate 0.125 kg/ha) was 2.0, the IPOSS herbicidal rating (IPOMOEA SPP.; Rate 0.125 kg/ha) was 2.0 and the IPOSS (IPOMOEA SPP.; Rate 0.250 kg/ha) was 3.0. The IPOSS herbicidal rating (IPOMOEA SPP.; Rate 0.250 kg/ha) was 3.0, the IPOSS (IPOMOEA SPP.; Rate 0.500 kg/ha) was 6.0 and the IPOSS herbicidal rating (IPOMOEA SPP.; Rate 0.500 kg/ha) was 6.0. For the same compound, the IPOSS (IPOMOEA SPP.; Rate 1.000 kg/ha) was 7.0, the ORYSAT ([4]; Rate 0.125 kg/ha) was 1.0 and the ORYSAT herbicidal rating ([4]; Rate 0.125 kg/ha) was 1.0. The ORYSAT ([4]; Rate 0.250 kg/ha) was 2.0, the ORYSAT herbicidal rating ([4]; Rate 0.250 kg/ha) was 2.0 and the ORYSAT ([4]; Rate 0.500 kg/ha) was 4.0. It also gave an ORYSAT herbicidal rating ([4]; Rate 0.500 kg/ha) of 4.0, an ORYSAT ([4]; Rate 1.000 kg/ha) of 4.0 and an AMBEL ([5]; Rate 0.125 kg/ha) of 5.0. The AMBEL herbicidal rating ([5]; Rate 0.125 kg/ha) was 5.0, the AMBEL ([5]; Rate 0.250 kg/ha) was 5.0 and the AMBEL herbicidal rating ([5]; Rate 0.250 kg/ha) was 5.0. The AMBEL ([5]; Rate 0.500 kg/ha) was 7.0, the AMBEL herbicidal rating ([5]; Rate 0.500 kg/ha) was 7.0 and the AMBEL ([5]; Rate 1.000 kg/ha) was 5.0. The TRZAWO ([6]; Rate 0.125 kg/ha) was 0.0, the TRZAWO herbicidal rating ([6]; Rate 0.125 kg/ha) was 0.0 and the TRZAWO ([6]; Rate 0.250 kg/ha) was 0.0. It also gave a TRZAWO herbicidal rating ([6]; Rate 0.250 kg/ha) of 0.0, a TRZAWO ([6]; Rate 0.500 kg/ha) of 1.0 and a TRZAWO herbicidal rating ([6]; Rate 0.500 kg/ha) of 1.0. For the same compound, the TRZAWO ([6]; Rate 1.000 kg/ha) was 1.0.
